Patent US20080312184A1 (priority 2005, published 2008)

Columns and labels:
[1] = test system: powdery mildew pathogen (EBI resistant strain); assay: Control Test on Powdery Mildew of Cucumbers (EBI Resistant Strain); type: in vivo, cucumbers (cultivar: sagami-hanjiro); conditions: single active ingredient
[2] = test system: gray mold fungus (MBC resistant, dicarboximide-based chemical sensitive: RS strain); assay: Control Test on Gray Mold of Tomato at its Flowering Stage (RS Strain); type: in vivo, tomatoes (cultivar: House-Momotaro); conditions: Table 4, single active ingredient, sprayed twice, examined after 7 days
[3] = Table 1, treated concentration 10 ppm, examined after 14 days

CC(C)CC(C)c1sccc1NC(=O)c1cn(C)nc1C(F)(F)F (racemic) [P (penthiopyrad), (RS)—N-[2-(1,3-dimethylbutyl)thiophen-3-yl]-1-methyl-3-tri fluoromethyl-1H-pyrazole-4-carboxamide]
Control Value [1, 3]: 68
Control Value ([1]; Table 7 (Example B), treated concentration 10 ppm): 68
Control Value ([2]; treated concentration 10 ppm): 56

Clc1nc(Cl)nc(Nc2ccccc2Cl)n1 [Anilazine, anilazine]
Control Value ([2]; treated concentration 50 ppm): 40

O=C(Nc1ccccc1-c1ccc(Cl)cc1)c1cccnc1Cl [Boscalid, boscalid]
Control Value ([2]; treated concentration 20 ppm): 48

CCCCc1c(C)nc(NCC)nc1OS(=O)(=O)N(C)C [Bupirimate, bupirimate]
Control Value ([1]; Table 1, treated concentration 20 ppm, examined after 14 days): 45

CCOC(=O)C1(C)OC(=O)N(c2cc(Cl)cc(Cl)c2)C1=O (stereo not drawn) [Chlozolinate, chlozolinate]
Control Value ([2]; treated concentration 40 ppm): 42

O=C(Cc1ccccc1)N/C(=N\OCC1CC1)c1c(C(F)(F)F)ccc(F)c1F [Cyflufenamid, cyflufenamid]
Control Value ([1]; Table 1, treated concentration 5 ppm, examined after 14 days): 66

CNC(=O)/C(=N/OC)c1ccccc1COc1cc(C)ccc1C [Dimoxystrobin, dimoxystrobin]
Control Value ([1]; Table 7 (Example B), treated concentration 15 ppm): 60

CC1(C(=O)Nc2ccc(O)c(Cl)c2Cl)CCCCC1 [Fenhexamid, fenhexamid]
Control Value ([2]; treated concentration 20 ppm): 55

FC(F)C(F)(F)OCC(Cn1cncn1)c1ccc(Cl)cc1Cl (stereo not drawn) [Tetraconazole, tetraconazole]
Control Value [1, 3]: 34

CC(C)(C)C(=O)C(Oc1ccc(Cl)cc1)n1cncn1 (stereo not drawn) [Triadimefon, triadimefon]
Control Value [1, 3]: 29
